This test has as its target T1, wild-type FLT3 phosphorylation in Baf3 FLT3 cells (Homo sapiens, UniProt P36888).
T1 construct: host or cells: Baf3 (murine B cell lymphoma line)
T1 sequence (P36888 27-993): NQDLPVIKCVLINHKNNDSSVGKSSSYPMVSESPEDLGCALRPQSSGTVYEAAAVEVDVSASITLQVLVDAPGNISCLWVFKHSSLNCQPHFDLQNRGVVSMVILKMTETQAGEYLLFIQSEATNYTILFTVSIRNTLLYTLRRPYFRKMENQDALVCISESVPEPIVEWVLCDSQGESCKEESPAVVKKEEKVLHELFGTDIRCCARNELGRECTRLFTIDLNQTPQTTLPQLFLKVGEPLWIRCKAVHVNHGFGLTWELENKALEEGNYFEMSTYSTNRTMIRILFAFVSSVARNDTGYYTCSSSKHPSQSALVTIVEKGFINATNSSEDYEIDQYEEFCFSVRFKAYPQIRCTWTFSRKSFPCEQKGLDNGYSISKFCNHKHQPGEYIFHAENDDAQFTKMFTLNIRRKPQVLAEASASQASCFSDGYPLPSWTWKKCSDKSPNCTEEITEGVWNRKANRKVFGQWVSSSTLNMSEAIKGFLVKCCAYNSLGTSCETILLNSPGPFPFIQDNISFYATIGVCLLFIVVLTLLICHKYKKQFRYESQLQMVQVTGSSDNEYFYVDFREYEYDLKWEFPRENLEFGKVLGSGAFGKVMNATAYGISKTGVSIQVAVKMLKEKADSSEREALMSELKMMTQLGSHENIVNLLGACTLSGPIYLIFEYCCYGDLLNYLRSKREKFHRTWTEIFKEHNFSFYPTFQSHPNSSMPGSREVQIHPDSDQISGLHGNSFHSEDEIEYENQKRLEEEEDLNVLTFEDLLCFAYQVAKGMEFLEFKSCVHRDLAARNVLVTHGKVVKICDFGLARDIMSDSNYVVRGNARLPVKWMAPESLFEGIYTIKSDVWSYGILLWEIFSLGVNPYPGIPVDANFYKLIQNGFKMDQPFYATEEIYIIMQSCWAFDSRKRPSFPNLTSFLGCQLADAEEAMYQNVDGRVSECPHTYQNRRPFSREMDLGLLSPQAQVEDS
Briefly: Cell-based FLT3 receptor ELISA. To be noted: FLT ligand-induced FLT3 phosphorylation. The method, then:
Specific cellular inhibition of FLT ligand-induced wild-type FLT3 phosphorylation was measured in the following manner: Baf3 FLT3 cells overexpressing the FLT3 receptor were obtained from Dr. Michael Heinrich (Oregon Health and Sciences University). The Baf3 FLT3 cell lines were created by stable transfection of parental Baf3 cells (a murine B cell lymphoma line dependent on the cytokine IL-3 for growth) with wild-type FLT3. Cells were selected for their ability to grow in the absence of IL-3 and in the presence of FLT3 ligand.
Baf3 cells were maintained in RPMI 1640 with 10% FBS, penn/strep and 10 ng/ml FLT ligand at 37° C., 5% CO2. To measure direct inhibition of the wild-type FLT3 receptor activity and phosphorylation a sandwich ELISA method was developed similar to those developed for other RTKs (see Sadick, M D, Sliwkowski, M X, Nuijens, A, Bald, L, Chiang, N, Lofgren, J A, Wong W L T. Analysis of Heregulin-Induced ErbB2 Phosphorylation with a High-Throughput Kinase Receptor Activation Enzyme-Linked Immunsorbent Assay, Analytical Biochemistry. 1996; 235:207-214 and Baumann C A, Zeng L, Donatelli R R, Maroney A C. Development of a quantitative, high-throughput cell-based enzyme-linked immunosorbent assay for detection of colony-stimulating factor-1 receptor tyrosine kinase inhibitors. J Biochem Biophys Methods. 2004; 60:69-79.). 200 μL of Baf3FLT3 cells (1×10^6/mL) were plated in 96 well dishes in RPMI 1640 with 0.5% serum and 0.01 ng/mL IL-3 for 16 hours prior to 1 hour compound or DMSO vehicle incubation. Cells were treated with 100 ng/mL Flt ligand (R&D Systems Cat# 308-FK) for 10 min. at 37° C. Cells were pelleted, washed and lysed in 100 ul lysis buffer (50 mM Hepes, 150 mM NaCl, 10% Glycerol, 1% Triton-X-100, 10 mM NaF, 1 mM EDTA, 1.5 mM MgCl2, 10 mM NaPyrophosphate) supplemented with phosphatase (Sigma Cat# P2850) and protease inhibitors (Sigma Cat #P8340). Lysates were cleared by centrifugation at 1000×g for 5 minutes at 4° C. Cell lysates were transferred to white wall 96 well microtiter (Costar #9018) plates coated with 50 ng/well anti-FLT3 antibody (Santa Cruz Cat# sc-480) and blocked with SeaBlock reagent (Pierce Cat#37527). Lysates were incubated at 4° C. for 2 hours. Plates were washed 3× with 200 ul/well PBS/0.1% Triton-X-100. Plates were then incubated with 1:8000 dilution of HRP-conjugated anti-phosphotyrosine antibody (Clone 4G10, Upstate Biotechnology Cat#16-105) for 1 hour at room temperature. Plates were washed 3× with 200 ul/well PBS/0.1% Triton-X-100. Signal detection with Super Signal Pico reagent (Pierce Cat#37070) was done according to manufacturer's instruction with a Berthold microplate luminometer. All data points are an average of triplicate samples. […] Inhibition and IC50 data analysis was done with GraphPad Prism using a non-linear regression fit with a multiparamater, sigmoidal dose-response (variable slope) equation.
For orientation: An ELISA detects its analyte on a solid surface through an enzyme-linked reagent.
As a reminder, the IC50 is the concentration needed to halve the response being measured. Low values mean greater potency, high ones weaker potency. With `COc1cc2ncnc(N3CCC(OC(=O)Nc4ccc(C(C)C)cc4)CC3)c2cc1OC` [Compound 1, (4-Isopropyl-phenyl)-carbamic acid 1-(6,7-dimethoxy-quinazolin-4-yl)-piperidin-4-yl ester], half-maximal inhibition (IC50) required 16 nM. With `COc1cc2ncnc(N3CCC(OC(=O)Nc4ccc(C(C)C)cc4)C3)c2cc1OC` (stereo not shown) [Compound 2, (4-Isopropyl-phenyl)-carbamic acid 1-(6,7-dimethoxy-quinazolin-4-yl)-pyrrolidin-3-yl ester], the IC50 is 64 nM. For `COc1cc2ncnc(N3CCC(OC(=O)Nc4ccc(OC(C)C)cc4)CC3)c2cc1OC` [Compound 3, (4-Isopropoxy-phenyl)-carbamic acid 1-(6,7-dimethoxy-quinazolin-4-yl)-piperidin-4-yl ester], the IC50 is 118 nM. Under `COc1cc2ncnc(N3CCCC(COC(=O)Nc4ccc(C(C)C)cc4)C3)c2cc1OC` (stereo not shown) [Compound 4] stands 6 nM; under `COc1cc2ncnc(N3CCC(CC(=O)Nc4ccc(C(C)C)cc4)CC3)c2cc1OC` [Compound 5, 2-[1-(6,7-Dimethoxy-quinazolin-4-yl)-piperidin-4-yl]-N-(4-isopropyl-phenyl)-acetamide], 6 nM. On to `COc1cc2ncnc(N3CCC(CC(=O)Nc4ccc(C(C)C)cc4)C3)c2cc1OC` (stereo not shown) [Compound 6, 2-[11-(6,7-Dimethoxy-quinazolin-4-yl)-pyrrolidin-3-yl]-N-(4-isopropyl-phenyl)-acetamide], for which the midpoint of inhibition, the IC50, lay at 46 nM.

`COc1cc2ncnc(N3CCC(NC(=O)Nc4ccc(C(C)C)cc4)C3)c2cc1OC` (stereo not shown) [Compound 7, 1-[1-(6,7-Dimethoxy-quinazolin-4-yl)-pyrrolidin-3-yl]-3-(4-isopropyl-phenyl)-urea] had an IC50 of 140 nM.

Take `COc1cc2ncnc(N3CCC(NC(=O)Nc4ccc(OC(C)C)cc4)C3)c2cc1OC` (stereo not shown) [Compound 8, 1-[1-(6,7-Dimethoxy-quinazolin-4-yl)-pyrrolidin-3-yl]-3-(4-isopropoxy-phenyl)-urea]: the 50% inhibitory concentration (IC50) was 360 nM. Under `COc1cc2ncnc(N3CCCC3COC(=O)Nc3ccc(C(C)C)cc3)c2cc1OC` (stereo not shown) [Compound 9] stands 27 nM; under `COc1cc2ncnc(N3CCC(OC(=O)Nc4ccc(OC5CCC5)nc4)C3)c2cc1OC` (stereo not shown) [Compound 12, (6-Cyclobutoxy-pyridin-3-yl)-carbamic acid 1-(6,7-dimethoxy-quinazolin-4-yl)-pyrrolidin-3-yl ester], 11 nM; under `COc1cc2ncnc(N3CCC(C(=O)Nc4ccc(C(C)C)cc4)CC3)c2cc1OC` [Compound 13, 1-(6,7-Dimethoxy-quinazolin-4-yl)-piperidine-4-carboxylic acid (4-isopropyl-phenyl)-amide], 89 nM. The figure for `CC(C)c1ccc(NC(=O)OC2CCN(c3ncnc4ccc(C#CCO)cc34)C2)cc1` (stereo not shown) [Compound 14, (4-Isopropyl-phenyl)-carbamic acid 1-[6-(3-hydroxy-prop-1-ynyl)-quinazolin-4-yl]-pyrrolidin-3-yl ester] is 4 nM; for `COc1cc2ncnc(N3CCC(OC(=O)Nc4ccc(OC(C)C)cc4)C3)c2cc1OC` (stereo not shown) [Compound 15, (4-Isopropoxy-phenyl)-carbamic acid 1-(6,7-dimethoxy-quinazolin-4-yl)-pyrrolidin-3-yl ester] it is 320 nM; for `CC(C)c1ccc(NC(=O)NC2CCN(c3ncnc4ccccc34)C2)cc1` (stereo not shown) [Compound 16, 1-(4-Isopropyl-phenyl)-3-(1-quinazolin-4-yl-pyrrolidin-3-yl)urea] it is 242 nM. `CCN(CC)CC#Cc1ccc2ncnc(N3CCC(OC(=O)Nc4ccc(C(C)C)cc4)C3)c2c1` (stereo not shown) [Compound 17, (4-Isopropyl-phenyl)-3-carbamic acid 1-[6-(3-diethylamino-prop-1-ynyl)-quinazolin-4-yl]-pyrrolidin-3-yl ester] came in with a concentration for half-maximal inhibition (IC50) of 163 nM. Compound `COc1cc2ncnc(N3CCC(CNC(=O)Nc4ccc(C(C)C)cc4)CC3)c2cc1OC` [Compound 18, 1-[1-(6,7-Dimethoxy-quinazolin-4-yl)-piperidin-4-ylmethyl]-3-(4-isopropyl-phenyl)-urea] had an IC50 of 49 nM. The figure for `COc1cc2ncnc(N3CCC(N(C)C(=O)Nc4ccc(C(C)C)cc4)C3)c2cc1OC` (stereo not shown) [Compound 19, 1-[1-(6,7-Dimethoxy-quinazolin-4-yl)-pyrrolidin-3-yl]-3-(4-isopropyl-phenyl)-1-methyl-urea] is 210 nM. Compound `CC(C)c1ccc(NC(=O)OC2CCN(c3ncnc4ccc(I)cc34)C2)cc1` (stereo not shown) [Compound 20, (4-Isopropyl-phenyl)-carbamic acid 1-(6-iodo-quinazolin-4-yl)-pyrrolidin-3-yl ester] had a half-inhibitory concentration (IC50) of 43 nM. As to `COc1cc2ncnc(N3CCC(NC(=O)Cc4ccc(C(C)C)cc4)CC3)c2cc1OC` [Compound 21, N-[1-(6,7-Dimethoxy-quinazolin-4-yl)-piperidin-4-yl]-2-(4-isopropyl-phenyl)-acetamide], the IC50 was 63 nM. `COc1cc2ncnc(N3CCC(C(=O)Nc4ccc(OC(C)C)cc4)CC3)c2cc1OC` [Compound 23, 1-(6,7-Dimethoxy-quinazolin-4-yl)-piperidine-4-carboxylic acid (4-isopropoxy-phenyl)-amide] had a concentration for half-maximal inhibition (IC50) of 176 nM. `COc1cc2ncc(C#N)c(N3CCC(NC(=O)Nc4ccc(C(C)C)cc4)C3)c2cc1OC` (stereo not shown) [Compound 26, 1-[1-(3-Cyano-6,7-dimethoxy-quinolin-4-yl)-pyrrolidin-3-yl]-3-(4-isopropyl-phenyl)-urea] registered an IC50 of 331 nM. As for `COc1cc2ncnc(N3CCCC(NC(=O)Nc4ccc(C(C)C)cc4)C3)c2cc1OC` (stereo not shown) [Compound 28, 1-[1-(6,7-Dimethoxy-quinazolin-4-yl)-piperidin-3-yl]-3-(4-isopropyl-phenyl)-urea], the half-maximal inhibitory concentration (IC50) is 1900 nM.

On to `COc1cc2ncc(C#N)c(N3CCC(NC(=O)Nc4ccc(OC(C)C)cc4)C3)c2cc1OC` (stereo not shown) [Compound 29, 1-[1-(3-Cyano-6,7-dimethoxy-quinolin-4-yl)-pyrrolidin-3-yl]-3-(4-isopropoxy-phenyl)-urea], for which the IC50 is 3100 nM.

In the case of `COc1cc2ncnc(N3CCCC(OC(=O)Nc4ccc(C(C)C)cc4)C3)c2cc1OC` (stereo not shown) [Compound 31, (4-Isopropyl-phenyl)-carbamic acid 1-[1-(6,7-dimethoxy-quinazolin-4-yl)-piperidin-3-yl]ester], the IC50 worked out at 1100 nM. Compound `COc1cc2ncc(C#N)c(N3CCC(OC(=O)Nc4ccc(OC(C)C)cc4)C3)c2cc1OC` (stereo not shown) [Compound 32, (4-Isopropoxy-phenyl)-carbamic acid 1-(3-cyano-6,7-dimethoxy-quinolin-4-yl)-pyrrolidin-3-yl ester] returned an IC50 of 1200 nM.

These data come from patent publication US20060281771A1, “SYNERGISTIC MODULATION OF FLT3 KINASE USING AMINOQUINOLINE AND AMINOQUINAZOLINE KINASE MODULATORS” (priority 2005, published 2006).
